Non-standard residues stand in square brackets, D forms with d. Residues, ends and D or L forms follow the SMILES beside them. pGlu = O=C1CC[C@@H](C(=O)O)N1
How the values were obtained:
[1] = biological target: T1, Orexin/Hypocretin receptor type 1 (Homo sapiens, UniProt O43613); experiment: Effective agonist concentration to human orexin receptor type 1 determined using the Xlfit program; type: functional
T1 sequence (O43613 whole entry): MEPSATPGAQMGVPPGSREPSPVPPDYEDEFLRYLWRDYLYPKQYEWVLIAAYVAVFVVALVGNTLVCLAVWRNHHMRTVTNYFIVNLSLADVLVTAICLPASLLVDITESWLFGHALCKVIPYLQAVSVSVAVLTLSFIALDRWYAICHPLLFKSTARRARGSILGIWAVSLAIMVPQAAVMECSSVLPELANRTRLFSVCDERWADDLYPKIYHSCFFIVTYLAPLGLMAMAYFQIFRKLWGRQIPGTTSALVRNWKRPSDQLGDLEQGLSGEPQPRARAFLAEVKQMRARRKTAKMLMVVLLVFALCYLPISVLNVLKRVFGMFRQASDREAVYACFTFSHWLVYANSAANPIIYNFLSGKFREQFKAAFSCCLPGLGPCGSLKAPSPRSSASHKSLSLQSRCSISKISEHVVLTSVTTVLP

Orexin receptor type 2 = biological target: T2, Orexin receptor type 2 (Homo sapiens, UniProt O43614); experiment: Effective agonist concentration to the human Orexin receptor type 2 was determined using the Xlfit program; type: functional
T2 sequence (O43614 whole entry): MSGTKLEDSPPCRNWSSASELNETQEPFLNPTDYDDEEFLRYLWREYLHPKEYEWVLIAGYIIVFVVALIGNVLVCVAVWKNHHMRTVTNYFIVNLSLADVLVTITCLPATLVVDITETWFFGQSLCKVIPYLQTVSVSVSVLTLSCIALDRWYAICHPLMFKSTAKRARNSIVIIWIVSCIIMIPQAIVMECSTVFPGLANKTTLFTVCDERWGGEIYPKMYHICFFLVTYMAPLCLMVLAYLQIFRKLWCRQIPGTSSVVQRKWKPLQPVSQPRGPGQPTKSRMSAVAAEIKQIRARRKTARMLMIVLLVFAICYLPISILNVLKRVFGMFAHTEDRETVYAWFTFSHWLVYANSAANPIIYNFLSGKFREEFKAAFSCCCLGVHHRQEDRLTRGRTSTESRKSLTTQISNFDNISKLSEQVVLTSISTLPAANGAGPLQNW

EC50 [1] [µM]	EC50 (Orexin receptor type 2) [µM]	Compound
> 1000	15.6	CC[C@H](C)[C@H](NC(=O)CNC(=O)[C@H](C)NC(=O)[C@H](C)NC(=O)[C@H](Cc1cnc[nH]1)NC(=O)[C@H](CC(N)=O)NC(=O)CNC(=O)[C@H](CO)NC(=O)[C@H](C)NC(=O)[C@H](CCC(N)=O)NC(=O)[C@H](CC(C)C)NC(=O)[C@H](CC(C)C)NC(=O)[C@H](CCCNC(=N)N)NC(=O)[C@H](CCC(N)=O)NC(=O)[C@H](CC(C)C)NC(=O)[C@H](CCCNC(=N)N)NC(=O)CNC(=O)[C@H](CCC(N)=O)NC(=O)[C@H](CC(C)C)NC(=O)CN)C(=O)N[C@@H](C)C(=O)N[C@H](C(=O)N[C@@H](CCSC)C(=O)O)[C@@H](C)O (H-GLQGRLQRLLQASGNHAAGIATM-OH)
0.68	0.29	CC[C@H](C)[C@H](NC(=O)CNC(=O)[C@H](C)NC(=O)[C@H](C)NC(=O)[C@H](Cc1cnc[nH]1)NC(=O)[C@H](CC(N)=O)NC(=O)CNC(=O)[C@H](C)NC(=O)CNC(=O)[C@H](Cc1cnc[nH]1)NC(=O)[C@H](CC(C)C)NC(=O)[C@H](CC(C)C)NC(=O)[C@H](CCC(=O)O)NC(=O)[C@H](Cc1ccc(O)cc1)NC(=O)[C@H](CC(C)C)NC(=O)[C@H](CCCNC(=N)N)NC(=O)[C@H](CS)NC(=O)[C@H](CO)NC(=O)[C@H](CS)NC(=O)[C@@H](NC(=O)[C@H](CCCCN)NC(=O)[C@H](CCC(N)=O)NC(=O)[C@@H](N)CCCNC(=N)N)[C@@H](C)O)C(=O)N[C@@H](CC(C)C)C(=O)N[C@H](C(=O)N[C@@H](CC(C)C)C(=O)O)[C@@H](C)O (H-RQKTCSCRLYELLHGAGNHAAGILTL-OH)
> 1000	> 1000	CSCC[C@H](NC(=O)[C@@H](NC(=O)[C@H](CC(C)C)NC(=O)[C@@H]1CCCN1C(=O)CNC(=O)[C@H](C)NC(=O)[C@H](C)NC(=O)[C@H](Cc1cnc[nH]1)NC(=O)[C@H](CC(N)=O)NC(=O)CNC(=O)[C@H](CO)NC(=O)[C@H](C)NC(=O)[C@H](CCC(N)=O)NC(=O)[C@H](CC(C)C)NC(=O)[C@H](CC(C)C)NC(=O)[C@H](CCCNC(=N)N)NC(=O)[C@H](CCC(N)=O)NC(=O)[C@H](CC(C)C)NC(=O)[C@H](CCCNC(=N)N)NC(=O)CNC(=O)[C@H](CCC(N)=O)NC(=O)[C@H](CC(C)C)NC(=O)CN)[C@@H](C)O)C(=O)O (H-GLQGRLQRLLQASGNHAAGPLTM-OH)
4.52	0.61	CC[C@H](C)[C@H](NC(=O)CNC(=O)[C@H](C)NC(=O)[C@H](C)NC(=O)[C@H](Cc1cnc[nH]1)NC(=O)[C@H](CC(N)=O)NC(=O)CNC(=O)[C@H](C)NC(=O)CNC(=O)[C@H](Cc1cnc[nH]1)NC(=O)[C@H](CC(C)C)NC(=O)[C@H](CC(C)C)NC(=O)[C@H](CCC(=O)O)NC(=O)[C@H](Cc1ccc(O)cc1)NC(=O)[C@H](CC(C)C)NC(=O)[C@H](CCCNC(=N)N)NC(=O)CNC(=O)[C@@H]1CCCN1C(=O)[C@H](CC(=O)O)NC(=O)[C@@H]1CCCN1C(=O)[C@H](CC(C)C)NC(=O)[C@@H]1CCCN1C(=O)[C@@H]1CCC(=O)N1)C(=O)N[C@@H](CC(C)C)C(=O)N[C@H](C(=O)N[C@@H](CC(C)C)C(=O)O)[C@@H](C)O ([pGlu]PLPDPGRLYELLHGAGNHAAGILTL-OH)
> 1000	4.4	CC[C@H](C)[C@H](NC(=O)CNC(=O)[C@H](C)NC(=O)[C@@H]1CCCN1C(=O)[C@H](Cc1cnc[nH]1)NC(=O)[C@H](CC(N)=O)NC(=O)CNC(=O)[C@H](CO)NC(=O)[C@H](C)NC(=O)[C@H](CCC(N)=O)NC(=O)[C@H](CC(C)C)NC(=O)[C@H](CC(C)C)NC(=O)[C@H](CCCNC(=N)N)NC(=O)[C@H](CCC(N)=O)NC(=O)[C@H](CC(C)C)NC(=O)[C@H](CCCNC(=N)N)NC(=O)CNC(=O)[C@H](CCC(N)=O)NC(=O)[C@H](CC(C)C)NC(=O)CN)C(=O)N[C@@H](CC(C)C)C(=O)N[C@H](C(=O)N[C@@H](CCSC)C(=O)O)[C@@H](C)O (H-GLQGRLQRLLQASGNHPAGILTM-OH)
1.79	0.42	CC[C@H](C)[C@H](NC(=O)CNC(=O)[C@H](C)NC(=O)[C@H](C)NC(=O)[C@H](Cc1cnc[nH]1)NC(=O)[C@H](CC(N)=O)NC(=O)CNC(=O)[C@H](C)NC(=O)CNC(=O)[C@H](Cc1cnc[nH]1)NC(=O)[C@H](CC(C)C)NC(=O)[C@H](CC(C)C)NC(=O)[C@H](CCC(=O)O)NC(=O)[C@H](Cc1ccc(O)cc1)NC(=O)[C@H](CC(C)C)NC(=O)[C@@H](N)CCCNC(=N)N)C(=O)N[C@@H](CC(C)C)C(=O)N[C@H](C(=O)N[C@@H](CC(C)C)C(=O)O)[C@@H](C)O (H-RLYELLHGAGNHAAGILTL-OH)

The remaining lines, values behind:

Compound	EC50 [1] [µM]	EC50 (Orexin receptor type 2) [µM]
CC[C@H](C)[C@H](NC(=O)CNC(=O)[C@H](C)NC(=O)[C@H](C)NC(=O)[C@H](Cc1cnc[nH]1)NC(=O)[C@H](CC(N)=O)NC(=O)CNC(=O)[C@H](C)NC(=O)CNC(=O)[C@H](Cc1cnc[nH]1)NC(=O)[C@H](CC(C)C)NC(=O)[C@H](CC(C)C)NC(=O)[C@H](CCC(=O)O)NC(=O)[C@H](Cc1ccc(O)cc1)NC(=O)[C@H](CC(C)C)NC(=O)[C@H](CCCNC(=N)N)NC(=O)[C@H](CSSC[C@H](NC(=O)[C@@H](N)CO)C(=O)N[C@@H](CCCNC(=N)N)C(=O)N[C@@H](CC(C)C)C(=O)N[C@@H](Cc1ccc(O)cc1)C(=O)N[C@@H](CCC(=O)O)C(=O)N[C@@H](CC(C)C)C(=O)N[C@@H](CC(C)C)C(=O)N[C@@H](Cc1cnc[nH]1)C(=O)NCC(=O)N[C@@H](C)C(=O)NCC(=O)N[C@@H](CC(N)=O)C(=O)N[C@@H](Cc1cnc[nH]1)C(=O)N[C@@H](C)C(=O)N[C@@H](C)C(=O)NCC(=O)N[C@H](C(=O)N[C@@H](CC(C)C)C(=O)N[C@H](C(=O)N[C@@H](CC(C)C)C(=O)O)[C@@H](C)O)[C@@H](C)CC)NC(=O)[C@@H](N)CO)C(=O)N[C@@H](CC(C)C)C(=O)N[C@H](C(=O)N[C@@H](CC(C)C)C(=O)O)[C@@H](C)O	0.69	0.24
CC[C@H](C)[C@H](NC(=O)CNC(=O)[C@H](C)NC(=O)[C@H](C)NC(=O)[C@H](Cc1cnc[nH]1)NC(=O)[C@@H](N)CC(N)=O)C(=O)N[C@@H](CC(C)C)C(=O)N[C@H](C(=O)N[C@@H](CC(C)C)C(=O)O)[C@@H](C)O (H-NHAAGILTL-OH)	> 1000	> 1000
CC[C@H](C)[C@H](NC(=O)CNC(=O)[C@H](C)NC(=O)[C@H](C)NC(=O)[C@H](Cc1cnc[nH]1)NC(=O)[C@H](CC(N)=O)NC(=O)CNC(=O)[C@H](CO)NC(=O)[C@H](C)NC(=O)[C@H](CCC(N)=O)NC(=O)[C@H](CC(C)C)NC(=O)[C@H](CC(C)C)NC(=O)[C@H](CCCNC(=N)N)NC(=O)[C@H](CCC(N)=O)NC(=O)[C@H](CC(C)C)NC(=O)[C@@H](N)CCCNC(=N)N)C(=O)N[C@@H](CC(C)C)C(=O)N[C@H](C(=O)N[C@@H](CCSC)C(=O)O)[C@@H](C)O (H-RLQRLLQASGNHAAGILTM-OH)	> 1000	0.57
CC(C)C[C@H](NC(=O)[C@@H]1CCCN1C(=O)[C@@H]1CCC(=O)N1)C(=O)N1CCC[C@H]1C(=O)N[C@@H](CC(=O)O)C(=O)N[C@@H](CS)C(=O)N[C@@H](CS)C(=O)N[C@@H](CCCN=C(N)N)C(=O)N[C@@H](CCC(N)=O)C(=O)N[C@@H](CCCCN)C(=O)N[C@H](C(=O)N[C@@H](CS)C(=O)N[C@@H](CO)C(=O)O)[C@@H](C)O	> 1000	> 1000
CC(C)C[C@H](NC(=O)CNC(=O)[C@@H]1CCCN1C(=O)[C@@H]1CCCN1C(=O)CNC(=O)[C@H](CO)NC(=O)[C@@H](N)CCCN=C(N)N)C(=O)N[C@@H](CCC(N)=O)C(=O)NCC(=O)N[C@@H](CCCN=C(N)N)C(=O)N[C@@H](CC(C)C)C(=O)N[C@@H](CCC(N)=O)C(=O)N[C@@H](CCCN=C(N)N)C(=O)O (H-RSGPPGLQGRLQR-OH)	> 1000	> 1000
CC[C@H](C)[C@H](NC(=O)CNC(=O)[C@H](C)NC(=O)[C@H](C)NC(=O)[C@H](Cc1c[nH]cn1)NC(=O)[C@H](CC(N)=O)NC(=O)CNC(=O)[C@H](C)N)C(=O)N[C@@H](CC(C)C)C(=O)N[C@H](C(=O)N[C@@H](CC(C)C)C(=O)O)[C@@H](C)O (H-AGNHAAGILTL-OH)	> 1000	> 1000
CC[C@H](C)[C@H](NC(=O)CNC(=O)[C@H](C)NC(=O)[C@H](C)NC(=O)[C@@H]1CCCN1C(=O)[C@H](CC(N)=O)NC(=O)CNC(=O)[C@H](CO)NC(=O)[C@H](C)NC(=O)[C@H](CCC(N)=O)NC(=O)[C@H](CC(C)C)NC(=O)[C@H](CC(C)C)NC(=O)[C@H](CCCNC(=N)N)NC(=O)[C@H](CCC(N)=O)NC(=O)[C@H](CC(C)C)NC(=O)[C@H](CCCNC(=N)N)NC(=O)CNC(=O)[C@H](CCC(N)=O)NC(=O)[C@H](CC(C)C)NC(=O)CN)C(=O)N[C@@H](CC(C)C)C(=O)N[C@H](C(=O)N[C@@H](CCSC)C(=O)O)[C@@H](C)O (H-GLQGRLQRLLQASGNPAAGILTM-OH)	1.89	0.84
CC(C)C[C@H](NC(=O)CNC(=O)[C@@H]1CCCN1C(=O)[C@@H]1CCCN1C(=O)CNC(=O)[C@H](CO)NC(=O)[C@@H](N)CCCN=C(N)N)C(=O)N[C@@H](CCC(N)=O)C(=O)NCC(=O)N[C@@H](CCCN=C(N)N)C(=O)N[C@@H](CC(C)C)C(=O)N[C@@H](CCC(N)=O)C(=O)N[C@@H](CCCN=C(N)N)C(=O)N[C@@H](CC(C)C)C(=O)N[C@@H](CC(C)C)C(=O)N[C@@H](CCC(N)=O)C(=O)O (H-RSGPPGLQGRLQRLLQ-OH)	> 1000	> 1000

From ChEMBL document CHEMBL1148480, “Structure-activity studies of orexin a and orexin B at the human orexin 1 and orexin 2 receptors led to orexin 2 receptor selective and orexin 1 receptor preferring ligands” (J Med Chem, 2004)
